The test system of test [1] is Mycobacterium tuberculosis. The test can be described thus: Antitubercular activity against Mycobacterium tuberculosis H37Rv ATCC 27294 after 5 to 8 days by microplate alamar blue assay. The class given is functional.
The subject of test [2] is Mycobacterium tuberculosis. Briefly: Antimycobacterial activity against Mycobacterium tuberculosis H37Rv ATCC 27294 assessed as growth inhibition at 6.25 ug/ml after 5 to 8 days by microplate alamar blue assay relative to control. The class given is functional. As to conditions: read-out: GI.

Structures are written as SMILES.

What is called MIC is the smallest concentration in the dilution series that meets the test's criterion for growth inhibition.

In test [1], `COc1ccccc1N/N=C1\C(=O)Nc2c(cccc2[N+](=O)[O-])C1=O` had an MIC greater than 6.25 µg/mL. Besides, the inhibition of growth at 6.25 µg/mL in test [2] is 32%.
Regarding `O=C1Nc2c(cccc2[N+](=O)[O-])C(=O)/C1=N/Nc1ccc(F)cc1`, the MIC in test [1] is greater than 6.25 µg/mL. For the same compound, the inhibition of growth at 6.25 µg/mL in test [2] worked out at 46%.
Compound `Cc1cccc(C)c1N/N=C1\C(=O)Nc2ccc(Cl)cc2C1=O` displayed an MIC in test [1] greater than 6.25 µg/mL. Besides, in test [2], the inhibition of growth at 6.25 µg/mL came to 13%.
For `CC(=O)c1ccc(N/N=C2/C(=O)c3ccccc3N(C)C2=O)cc1` the same measures were greater than 6.25 µg/mL and 20%.
`O=C1Nc2ccc(Cl)cc2C(=O)/C1=N/Nc1ccc(Cl)c(Cl)c1` gave an MIC in test [1] of less than 6.25 µg/mL. The inhibition of growth at 6.25 µg/mL in test [2] is 95%.
In test [1], `COc1ccc(N/N=C2\C(=O)Nc3c(cccc3[N+](=O)[O-])C2=O)c(C)c1` returned an MIC greater than 6.25 µg/mL. The inhibition of growth at 6.25 µg/mL in test [2] came to 45%.
Compound `Cc1ccc(N/N=C2\C(=O)Nc3c(Cl)cccc3C2=O)cc1` came in with an MIC in test [1] greater than 6.25 µg/mL. In addition, the inhibition of growth at 6.25 µg/mL in test [2] worked out at 34%.
In turn, `Cc1ccc2c(c1)NC(=O)/C(=N\Nc1ccccc1Cl)C2=O` came in with an MIC in test [1] greater than 6.25 µg/mL. The inhibition of growth at 6.25 µg/mL in test [2] stood at 31%.
Compound `COc1ccc(N/N=C2\C(=O)Nc3c(Cl)ccc(Cl)c3C2=O)c(C)c1` displayed an MIC in test [1] greater than 6.25 µg/mL. Also, in test [2], the inhibition of growth at 6.25 µg/mL is 40%.
For `O=C1Nc2cc([N+](=O)[O-])ccc2C(=O)/C1=N/Nc1ccc(Br)cc1`, the minimal inhibitory concentration (MIC) in test [1] was less than 6.25 µg/mL. The inhibition of growth at 6.25 µg/mL in test [2] was determined as 100%.
In turn, `O=C1Nc2c(cccc2[N+](=O)[O-])C(=O)/C1=N/Nc1ccc(Cl)cc1` returned an MIC in test [1] of less than 6.25 µg/mL. In addition, the inhibition of growth at 6.25 µg/mL in test [2] came to 61%.
As for `CN1C(=O)/C(=N\Nc2ccc(Cl)c(Cl)c2)C(=O)c2ccccc21`, the MIC in test [1] was greater than 6.25 µg/mL. In addition, the inhibition of growth at 6.25 µg/mL in test [2] turned out to be 10%.
For `O=C1Nc2c(ccc(Cl)c2Cl)C(=O)/C1=N/Nc1ccc([N+](=O)[O-])cc1` the same measures were less than 6.25 µg/mL and 89%.
On to `Cc1cccc(N/N=C2\C(=O)Nc3c(ccc(Cl)c3Cl)C2=O)c1`, for which the MIC in test [1] is less than 6.25 µg/mL. In addition, in test [2], the inhibition of growth at 6.25 µg/mL amounted to 62%.
With `O=C1Nc2cc([N+](=O)[O-])ccc2C(=O)/C1=N/Nc1ccccc1-c1ccccc1`, the MIC in test [1] is less than 6.25 µg/mL. Moreover, the inhibition of growth at 6.25 µg/mL in test [2] turned out to be 100%.
In the case of `Cc1c(Cl)cccc1N/N=C1\C(=O)Nc2c(cccc2[N+](=O)[O-])C1=O`, the MIC in test [1] was less than 6.25 µg/mL. Also, in test [2], the inhibition of growth at 6.25 µg/mL was found to be 56%.
